Measurements as given in ChEMBL document CHEMBL1201862, “PubChem BioAssay data set” (2004).
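1) Cells in 96-well plates. 2) Compound, 48 h, 5 concentrations. 3) Linear interpolation between surrounding doses. 4) Unreached endpoint = highest concentration. GI50 marks 50% less growth.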 The source made the active and inactive calls. Rule as the data show it: active = GI50 up to about 1.1 µM and inactive = higher.

What was measured:
Experiment in all cases: DTP human tumour cell line panel, 48 h
[1] = system: A549
[2] = system: CAKI-1
[3] = system: COLO 205
[4] = system: HCC 2998
[5] = system: HOP-92
[6] = system: IGROV-1
[7] = system: KM12
[8] = system: LOX IMVI
[9] = system: M14
[10] = system: OVCAR-3
[11] = system: SK-MEL-28
[12] = system: SK-OV-3
[13] = system: U-251
[14] = system: HOP-62
[15] = system: NCI-H226
[16] = system: SK-MEL-2
[17] = system: SNB-19

| Compound | GI50 [1] | GI50 [2] | GI50 [3] | GI50 [4] | GI50 [5] | GI50 [6] | GI50 [7] | GI50 [8] | GI50 [9] | GI50 [10] | GI50 [11] | GI50 [12] | GI50 [13] | GI50 [14] | GI50 [15] | GI50 [16] | GI50 [17] |
| --- | --- | --- | --- | --- | --- | --- | --- | --- | --- | --- | --- | --- | --- | --- | --- | --- | --- |
| COC1=CC(=C(C#N)/C(=N\c2ccccc2)SC)C=C(OC)C1=O | 78.9 µM (inactive) | > 100 µM (inactive) | > 100 µM (inactive) | 94.8 µM (inactive) | 3.84 µM (inactive) | 86.1 µM (inactive) | 63.2 µM (inactive) | 39.5 µM (inactive) | > 10 µM (inactive) | 31.2 µM (inactive) | > 100 µM (inactive) | > 100 µM (inactive) | 0.352 µM (active) | – | – | – | – |
| CN(c1ccccc1)c1cc2ccccc2nn1 | > 100 µM (inactive) | > 100 µM (inactive) | > 100 µM (inactive) | – | > 100 µM (inactive) | > 100 µM (inactive) | > 100 µM (inactive) | 84.5 µM (inactive) | > 100 µM (inactive) | 53.8 µM (inactive) | > 100 µM (inactive) | > 100 µM (inactive) | 81.8 µM (inactive) | > 100 µM (inactive) | > 100 µM (inactive) | > 100 µM (inactive) | > 100 µM (inactive) |
| C=C1c2[nH]c3ccccc3c2CC(C(=O)O)N1C(O)c1ccc(S(=O)(=O)O)cc1 (stereo not drawn) | > 100 µM (inactive) | > 100 µM (inactive) | – | > 100 µM (inactive) | 22.1 µM (inactive) | – | > 100 µM (inactive) | > 100 µM (inactive) | > 100 µM (inactive) | > 100 µM (inactive) | > 100 µM (inactive) | > 100 µM (inactive) | > 100 µM (inactive) | > 100 µM (inactive) | 42.9 µM (inactive) | > 100 µM (inactive) | > 100 µM (inactive) |
| COC(=O)c1ccccc1NC(=O)C(=O)NNC(=O)c1ccncc1 | > 100 µM (inactive) | > 100 µM (inactive) | > 100 µM (inactive) | > 100 µM (inactive) | > 100 µM (inactive) | > 100 µM (inactive) | > 100 µM (inactive) | > 100 µM (inactive) | > 100 µM (inactive) | > 100 µM (inactive) | > 100 µM (inactive) | > 100 µM (inactive) | – | > 100 µM (inactive) | > 100 µM (inactive) | – | > 100 µM (inactive) |
| COc1ccc(/C=C2/C[N+](C)(C)C/C(=C/c3ccc(OC)cc3)C2=O)cc1 | > 76.4 µM (inactive) | > 100 µM (inactive) | 16.9 µM (inactive) | 15.3 µM (inactive) | 52.1 µM (inactive) | 23.9 µM (inactive) | 16 µM (inactive) | 88.1 µM (inactive) | 70.5 µM (inactive) | 30 µM (inactive) | 12.9 µM (inactive) | > 100 µM (inactive) | 19.5 µM (inactive) | > 100 µM (inactive) | 20.9 µM (inactive) | 25.6 µM (inactive) | 43.3 µM (inactive) |
| Clc1ccccc1C1=NN(c2ccccc2)C2c3ccccc3OCC12 (stereo not drawn) | > 100 µM (inactive) | – | > 100 µM (inactive) | > 100 µM (inactive) | 39.6 µM (inactive) | > 100 µM (inactive) | > 100 µM (inactive) | 88.1 µM (inactive) | – | > 100 µM (inactive) | > 100 µM (inactive) | > 100 µM (inactive) | > 100 µM (inactive) | > 100 µM (inactive) | – | > 100 µM (inactive) | > 100 µM (inactive) |
| [N-]=[N+]=NC1CC(n2cc(COCC(F)(F)F)c(=O)[nH]c2=O)OC1CO (stereo not drawn) | > 100 µM (inactive) | > 100 µM (inactive) | > 100 µM (inactive) | > 100 µM (inactive) | > 100 µM (inactive) | > 100 µM (inactive) | > 100 µM (inactive) | > 100 µM (inactive) | > 100 µM (inactive) | > 100 µM (inactive) | > 100 µM (inactive) | > 100 µM (inactive) | > 100 µM (inactive) | > 100 µM (inactive) | – | > 100 µM (inactive) | > 100 µM (inactive) |
| COC(=O)C(=O)C(CC(=O)Nc1ccc(C)cc1)C(=O)OC (stereo not drawn) | > 100 µM (inactive) | > 100 µM (inactive) | – | > 100 µM (inactive) | > 100 µM (inactive) | > 100 µM (inactive) | > 100 µM (inactive) | > 100 µM (inactive) | > 100 µM (inactive) | > 100 µM (inactive) | > 100 µM (inactive) | > 100 µM (inactive) | > 100 µM (inactive) | > 100 µM (inactive) | > 100 µM (inactive) | > 100 µM (inactive) | > 100 µM (inactive) |
| Clc1ccc(C2=NOC3C4CCC(C4)C23)cc1 (stereo not drawn) | > 100 µM (inactive) | > 100 µM (inactive) | > 100 µM (inactive) | > 100 µM (inactive) | > 100 µM (inactive) | > 100 µM (inactive) | > 100 µM (inactive) | – | > 100 µM (inactive) | > 100 µM (inactive) | > 100 µM (inactive) | > 100 µM (inactive) | > 100 µM (inactive) | > 100 µM (inactive) | > 100 µM (inactive) | > 100 µM (inactive) | > 100 µM (inactive) |
